The text below walks through data of BindingDB's records for doi:10.7270/Q2CV4GM1 (D3R/Abbott, 2015).

Several values for one entry are separate records, joined by “and”; a condition that tells them apart may be missing. Identical values can stand only once.

For this assay, the target named is T1, Tyrosine-protein kinase SYK [355-635] (Homo sapiens, UniProt P43405).
T1 construct: 355-635
The assay is described as follows: SYK assay_HTRF.

In the case of `O=S1(=O)NCc2cc(Nc3nccc(Nc4cccc5[nH]ncc45)n3)ccc21` [GTC000153A], the 50% inhibitory concentration (IC50) was 42.2 nM and 85.9 nM and 54.1 nM.
In the case of `CC(=O)N1CCc2cc(Nc3nccc(Nc4cccc5[nH]ncc45)n3)ccc21` [GTC000114A] it was 206 nM.
In the case of `CC(C)(C)OC(=O)COc1ccc(Nc2nccc(Nc3cccc4[nH]ncc34)n2)cc1` [GTC000194A] it was 1180 nM and 1960 nM and 1640 nM; in that of `CCN(c1nc(Nc2ccc3c(C)n(CCCO)nc3c2)ncc1F)c1cccc2[nH]ncc12` [GTC000370A], 188 nM; in that of `CCN(c1nc(Nc2ccc(C(N)=O)cc2)ncc1F)c1cccc2[nH]ncc12` [GTC000260A], 5.48 nM.
With `O=S(=O)(Nc1ccccn1)c1ccc(Nc2nccc(Nc3cccc4[nH]ncc34)n2)cc1` [GTC000191A], the IC50 was 673 nM and 571 nM.
Compound `O=C1CNC(=O)N1c1cccc(Nc2nccc(Nc3cccc4[nH]ncc34)n2)c1` [GTC000167A] came in with an IC50 of 233 nM.
In the case of `CCN(c1nc(Nc2cc(S(N)(=O)=O)ccc2C)ncc1F)c1cccc2[nH]ncc12` [GTC000364A] it was 102 nM; in that of `O=C1Cc2ccc(Nc3nccc(Nc4cccc5[nH]ncc45)n3)cc2N1` [GTC000154A], 22.3 nM and 41.5 nM.
`CN(c1nc(Nc2ccc3nn[nH]c3c2)ncc1F)c1cccc2[nH]ncc12` [GTC000265A] yielded an IC50 of 5.6 nM.
In the case of `NC(=O)CN(c1nc(Nc2ccc3c(c2)S(=O)(=O)CC3)ncc1F)c1cccc2[nH]ncc12` [GTC000369A] it was 198 nM; in that of `COCCN(c1ccnc(Nc2cccc(-c3ocnc3C)c2)n1)c1cccc2[nH]ncc12` [GTC000323A], 21.5 nM; in that of `CNC(=O)COc1cccc(Nc2nccc(Nc3cccc4[nH]ncc34)n2)c1` [GTC000140A], 36.3 nM and 45.7 nM and 37.4 nM and 80.7 nM.
With `O=C1OCc2cc(Nc3nccc(Nc4cccc5[nH]ncc45)n3)ccc21` [GTC000152A] the figure was 68.5 nM and 88.5 nM.
`NS(=O)(=O)c1cccc(Nc2nccc(N(CC(F)(F)F)c3cccc4[nH]ncc34)n2)c1` [GTC000365A]: inhibition was half-maximal at 98.2 nM (IC50).
With `CN(c1nc(Nc2ccc3[nH]c(=O)[nH]c3c2)ncc1F)c1cccc2[nH]ncc12` [GTC000264A] the figure was 5.3 nM; with `Cc1nc(NC(=O)Cc2ccc(Nc3nccc(Nc4cccc5[nH]ncc45)n3)cc2)sc1C` [GTC000215A], 676 nM.
`CCN(CC)CCCN(c1ccnc(Nc2ccc3c(c2)C(=O)NS3(=O)=O)n1)c1cccc2[nH]ncc12` [GTC000332A] came in with an IC50 of 23.9 nM.
With `O=S1(=O)Cc2ccc(Nc3nccc(Nc4cccc5[nH]ncc45)n3)cc2C1` [GTC000147A] the figure was 60.5 nM and 109 nM; with `COCCCN(c1nc(Nc2ccc3c(cnn3C)c2)ncc1F)c1cccc2[nH]ncc12` [GTC000294A], 10.2 nM.
In turn, `CCN(c1nc(Nc2ccc3c(c2)C(C)(C)C(=O)N3)ncc1F)c1cccc2[nH]ncc12` [GTC000302A] registered an IC50 of 13.2 nM.
Compound `CCN(c1nc(Nc2ccc(C(=O)N3CCN(C)CC3)cc2)ncc1F)c1cccc2[nH]ncc12` [GTC000372A] came in with an IC50 of 244 nM.
As for `CCN(c1nc(Nc2ccc3c(c2)C(=O)N(C)C3)ncc1F)c1cccc2[nH]ncc12` [GTC000353A], the IC50 was 32.5 nM and 109 nM.
With `CNC(=O)Cc1ccc(Nc2nccc(Nc3cccc4[nH]ncc34)n2)cc1` [GTC000218A] the figure was 1260 nM.
In the case of `CC(=O)NCCCCCN(c1ccnc(Nc2ccc3[nH]c(=O)[nH]c3c2)n1)c1cccc2[nH]ncc12` [GTC000310A] it was 16.4 nM.
With `NC(=O)c1cccc(Nc2nccc(Nc3cccc4[nH]ncc34)n2)c1` [3-{[4-(1H-indazol-4-ylamino)pyrimidin-2-yl]amino}benzamide] the figure was 533 nM; with `c1cc(Nc2ccnc(Nc3ccc4c(c3)OCO4)n2)c2cn[nH]c2c1` [GTC000155A], 40.5 nM and 65.9 nM and 77.6 nM and 267 nM.
`CCN(c1nc(Nc2ccc3c(c2)CCN3C(=O)C(F)(F)F)ncc1F)c1cccc2[nH]ncc12` [GTC000354A] showed an IC50 of 59 nM.
`O=C1Nc2ccc(Nc3nccc(Nc4cccc5[nH]ncc45)n3)cc2CO1` [GTC000149A]: the IC50 was 7.21 nM and 25.2 nM.
With `CCN(c1nc(Nc2ccc3ncsc3c2)ncc1F)c1cccc2[nH]ncc12` [GTC000325A] the figure was 10.1 nM and 55.7 nM and 29.3 nM.
In the case of `O=C(Cc1ccc(Nc2nccc(Nc3cccc4[nH]ncc34)n2)cc1)Nc1ccc(C(F)(F)F)cc1` [GTC000211A] it was 2930 nM; in that of `O=S(=O)(c1ccc(Nc2nccc(Nc3cccc4[nH]ncc34)n2)cc1)N1CCCC1` [GTC000188A], 1800 nM and 1340 nM; in that of `Cc1ncoc1-c1cccc(Nc2nccc(Nc3cccc4[nH]ncc34)n2)c1` [GTC000134A], 29.2 nM and 49.8 nM and 66.1 nM and 130 nM.
In the case of `CCNC(=O)c1ccc(Nc2ncc(F)c(N(CC)c3cccc4[nH]ncc34)n2)cc1` [GTC000312A] it was 16.1 nM.
Turning to `CNC(=O)CN(c1nc(Nc2ccc3c(c2)S(=O)(=O)CC3)ncc1F)c1cccc2[nH]ncc12` [GTC000367A], the 50% inhibitory concentration (IC50) is 81.5 nM and 174 nM and 157 nM and 171 nM.
In the case of `Cc1noc(NS(=O)(=O)c2ccc(Nc3nccc(Nc4cccc5[nH]ncc45)n3)cc2)c1C` [GTC000187A] it was 1380 nM and 971 nM.
In the case of `COCCN(c1ccnc(Nc2cccc(S(N)(=O)=O)c2)n1)c1cccc2[nH]ncc12` [GTC000335A] it was 22.4 nM; in that of `Cc1cc(=O)[nH]c2cc(Nc3nccc(Nc4cccc5[nH]ncc45)n3)ccc12` [GTC000109A], 53.6 nM; in that of `O=C(COc1ccc(Nc2nccc(Nc3cccc4[nH]ncc34)n2)cc1)NCCCN1CCCC1=O` [GTC000204A], 2070 nM.
With `O=S1(=O)NCc2ccc(Nc3ncc(F)c(N(CCCO)c4cccc5[nH]ncc45)n3)cc21` [GTC000230A] the figure was 1.46 nM; with `CCN(c1nc(Nc2ccc(N)c(OC(C)=O)c2)ncc1F)c1cccc2[nH]ncc12` [GTC000348A], 30.5 nM.
With `COC(=O)c1ccc(Nc2nccc(Nc3cccc4[nH]ncc34)n2)cc1` [GTC000174A], the half-maximal inhibitory concentration (IC50) is 175 nM and 209 nM.
With `CS(=O)(=O)NCCCN(c1ccnc(Nc2ccc3[nH]c(=O)[nH]c3c2)n1)c1cccc2[nH]ncc12` [GTC000239A] the figure was 3.16 nM.
With `CCN(c1nc(Nc2cccc(N3CCN(C)CC3)c2)ncc1F)c1cccc2[nH]ncc12` [GTC000331A], the IC50 is 23.8 nM.
Take `COCCCN(c1nc(Nc2ccc3nn[nH]c3c2)ncc1F)c1cccc2[nH]ncc12` [GTC000336A]: the IC50 stood at 25.6 nM.
In the case of `CC(=O)NCCCCN(c1ccnc(Nc2ccc3[nH]c(=O)[nH]c3c2)n1)c1cccc2[nH]ncc12` [GTC000231A], the IC50 came out at 1.42 nM.
In the case of `CS(=O)(=O)c1cccc(Nc2nccc(N(CCO)c3cccc4[nH]ncc34)n2)c1` [GTC000311A] it was 15.3 nM; in that of `COc1cccc(NC(=O)Cc2ccc(Nc3nccc(Nc4cccc5[nH]ncc45)n3)cc2)c1` [GTC000209A], 524 nM; in that of `CN(c1nc(Nc2cccc(C(N)=O)c2)ncc1F)c1cccc2[nH]ncc12` [GTC000366A], 110 nM.
With `CC(C)c1ccc(Nc2nccc(Nc3cccc4[nH]ncc34)n2)cc1` [GTC000128A] the figure was 219 nM; with `CCN(C(C)=O)c1ccc(Nc2nccc(Nc3cccc4[nH]ncc34)n2)cc1` [GTC000172A], 589 nM; with `CCN(c1nc(Nc2ccc3nn[nH]c3c2)ncc1F)c1cccc2[nH]ncc12` [GTC000267A], 6.27 nM.
With `Cn1ncc2ccc(Nc3nccc(N(CCCO)c4cccc5[nH]ncc45)n3)cc21` [GTC000270A] the figure was 6.95 nM; with `c1cc(Nc2nccc(Nc3cccc4[nH]ncc34)n2)cc(-c2cnco2)c1` [GTC000156A], 18.7 nM and 33.6 nM.
On to `O=C(O)CCCN(c1ccnc(Nc2ccc3c(c2)S(=O)(=O)NC3)n1)c1cccc2[nH]ncc12` [GTC000245A], for which 3.88 nM corresponded to half-maximal inhibition (IC50).
In the case of `CCN(c1nc(Nc2cccc(O)c2)ncc1F)c1cccc2[nH]ncc12` [GTC000282A] it was 7.94 nM.
Take `COc1ccc(Nc2nccc(Nc3cccc4[nH]ncc34)n2)cc1Cl` [GTC000141A]: the IC50 was 140 nM and 145 nM and 284 nM and 612 nM.
Take `CCN(c1nc(Nc2ccc(C)c(S(=O)(=O)NCCO)c2)ncc1F)c1cccc2[nH]ncc12` [GTC000343A]: inhibition was half-maximal at 32.7 nM (IC50).
In the case of `COCCCN(c1nc(Nc2ccc3c(c2)COC(=O)N3)ncc1F)c1cccc2[nH]ncc12` [GTC000273A] it was 6.78 nM; in that of `Cc1nn(CCCO)c2cc(Nc3ncc(F)c(N(CCCO)c4cccc5[nH]ncc45)n3)ccc12` [GTC000234A], 4.79 nM and 2.46 nM and 1.87 nM; in that of `COCCCN(c1nc(Nc2ccc3c(C)nn(CCCO)c3c2)ncc1F)c1cccc2[nH]ncc12` [GTC000279A], 7.52 nM.
In the case of `COCCCN(c1ccnc(Nc2ccc3c(c2)S(=O)(=O)NC3)n1)c1cccc2[nH]ncc12` [GTC000236A] it was 2.69 nM and 1.48 nM and 4.88 nM and 4.34 nM; in that of `Cc1nc(NS(=O)(=O)Cc2ccc(Nc3nccc(Nc4cccc5[nH]ncc45)n3)cc2)sc1C` [GTC000201A], 1100 nM.
With `CCN(c1nc(Nc2ccc3c(C)nn(CCCO)c3c2)ncc1F)c1cccc2[nH]ncc12` [GTC000242A] the figure was 3.61 nM and 9.62 nM and 1.58 nM and 2.77 nM and 3.88 nM; with `c1cc(Nc2nccc(Nc3cccc4[nH]ncc34)n2)cc(-c2nc3ccccc3[nH]2)c1` [GTC000157A], 5.4 nM and 15.2 nM.
For `c1cc(Nc2ccnc(Nc3cccc4[nH]ncc34)n2)c2cn[nH]c2c1` [GTC000113A], inhibition was half-maximal at 160 nM (IC50).
In the case of `CCN(c1nc(Nc2ccc3cnn(CCCO)c3c2)ncc1F)c1cccc2[nH]ncc12` [GTC000250A], the 50% inhibitory concentration (IC50) is 2.81 nM and 3.59 nM and 14.9 nM and 5.77 nM.
With `NC(=O)COc1ccc(Nc2nccc(Nc3cccc4[nH]ncc34)n2)cc1` [GTC000196A] the figure was 227 nM; with `CN1CCN(C(=O)c2ccc(Nc3nccc(Nc4cccc5[nH]ncc45)n3)cc2)CC1` [GTC000185A], 4190 nM; with `N#Cc1cccc(Nc2nccc(Nc3cccc4[nH]ncc34)n2)c1` [GTC000131A], 62.4 nM and 70.5 nM.
On to `Cn1ncc2cc(Nc3nccc(N(CCCO)c4cccc5[nH]ncc45)n3)ccc21` [GTC000225A], for which the concentration for half-maximal inhibition (IC50) is 20.6 nM and 18.5 nM.
In the case of `CCCN(c1nc(Nc2ccc3c(c2)S(=O)(=O)CC3)ncc1F)c1cccc2[nH]ncc12` [GTC000350A] it was 40.6 nM; in that of `N#Cc1ccc(Nc2nccc(Nc3cccc4[nH]ncc34)n2)cc1` [GTC000139A], 211 nM; in that of `COCCCN(c1nc(Nc2ccc3cnn(C)c3c2)ncc1F)c1cccc2[nH]ncc12` [GTC000298A], 10.7 nM and 15.6 nM and 15.1 nM.

In general, IC50 refers to the concentration that inhibits the measured activity by half. Low values mean inhibition by little substance, high ones a need for much substance.
